Assay results reported in a melting point compilation (Tetko et al.; mined from patent text by program, amines drawn as free bases though some values may be those of a salt).

| SMILES | melting point |
| --- | --- |
| O=C1c2ccccc2C(=O)c2sc(-c3ccc(CO)o3)nc21 | > 260 °C |
| CCCCS(=O)(=O)NCCc1nc(-c2ccc(-c3ccccc3)cc2)c[nH]1 | 168 °C |
| O=C(O)c1ccc(-c2coc(-c3cccc(C(F)(F)F)c3)n2)cc1 | 268 to 269 °C |
| CC(=O)CSc1nc2ccccc2cc1-c1ccccc1 | 88 to 90 °C |
| CN(C)c1nc(CSCCNC2=NS(=O)N=C2N)cs1 (configuration not stated) | 116 to 122 °C |
| CC(C)(C)c1ccc(/C=C/C(=O)Nc2ccc3nccnc3c2)cc1 | 229 to 230 °C |
| Cc1cn(C(C)C(=O)N(C)c2ccccc2)nc1-c1ccccc1 (configuration not stated) | 112 to 114 °C |
| O=C1OC[C@@H](CO)N1c1nc(-c2ccc(Br)cc2)cs1 | 189 to 192 °C |
| O=C(NCC1CCN(C(c2ccccc2)c2ccccc2)CC1)c1cc(F)ccc1[N+](=O)[O-] | 164 to 166 °C |
| Cc1ccccc1C1CN(C(=O)OC(C)(C)C)CCC1=O (configuration not stated) | 97 to 99 °C |
| Cc1c(-c2ccncc2)nc2n(c1=O)CCCN2CC(=O)c1ccccc1 | 190 to 192 °C |
| CCOc1cc(CO)ccc1OCc1nc(-c2ccco2)oc1C | 141 to 142 °C |
| COc1ccc(C(CC(C)(C)C(=O)O)c2ccc(Cl)cc2)cc1 (configuration not stated) | 139 to 142 °C |
| CC(=CN=Cc1ccccc1Cl)c1cccs1 | 102 °C |
| CCC(CC)c1ccc(Cl)c2nc(Oc3c(C)cc(Cl)cc3Cl)n(C)c12 | 155 to 157 °C |
| COc1ccc2[nH]cc(C3CCN(CCCCN4C(=O)c5ccccc5C4=O)CC3)c2c1 | 155 °C |
| O=C(c1ccc(F)cc1)C1CCN(CCCn2c(=O)[nH]c3ccccc32)CC1 | 164 °C |
| Cn1ccc(-c2cc3nccnc3[nH]2)c1 | 211 to 213 °C |
| O=C(NNS(=O)(=O)c1ccccc1)c1cc2cc(Cl)ccc2o1 | 181 to 183 °C |
| COC(=O)/C=C/c1ccc(-c2nc3c(=O)n(CC4CCCCC4)c(=O)n(CC4CCCCC4)c3[nH]2)cc1 | > 270 °C |
| c1ccc(-c2cnc3ccccc3n2)cc1 | 77 °C |
| CC(=O)OCC1CCn2c(c(C3=C(c4coc5ccccc45)C(=O)NC3=O)c3ccccc32)C1 (configuration not stated) | 234 to 237 °C |
| N#Cc1cc(=O)c2c(o1)c1ccccc1n2-c1ccccc1 | 192 to 193 °C |
| CCOC(=O)C1Cc2c([nH]c3ccccc23)CN1 (configuration not stated) | 126 to 128 °C |
| Cc1ccc(I(Cl)Cl)c([N+](=O)[O-])c1 | 50 to 52 °C |
| COc1ccc(Cc2n[nH]c3c2c(=O)n(-c2ccccc2)c2ncccc32)cc1 | 300 to 302 °C |

| SMILES | melting point |
| --- | --- |
| COc1cccc2c1C(C)N1CC(=O)NC1=N2 (configuration not stated) | 250 °C |
| CN(C1=NCCO1)c1ccc(C(O)(C(F)(F)F)C(F)(F)F)cc1 | 188 to 190 °C |
| O=C(Nc1ccc(Oc2ccnc(N3CCC4(CC3)OCCO4)n2)c2ccccc12)c1cc(F)cc(N2CCOCC2)c1 | 115 to 117 °C |
| O=C1CCCC(=O)C1Cc1ccccc1CCCCl | 143 to 145 °C |
| OCc1ccc2c(c1)C1(c3ccccc3-2)c2ccccc2-c2ccc(CO)cc21 | 254 to 255 °C |
| Cc1ccc(C2CN(c3cc4c(cc3F)ncc3c4c(=O)c(C(=O)O)cn3C)CCN2)cc1C (configuration not stated) | 325 °C |
| CC(=O)NCC(=O)NCC1(S)C2CC3CC(C2)CC1C3 (configuration not stated) | 154 to 157 °C |
| C[C@@H](C(=O)c1ccccc1)[C@H](NC(=O)C(F)(F)F)C(=O)OC(C)(C)C | 127 to 128 °C |
| NC(=O)N1C(=O)C(C(=O)c2cc(Cl)cs2)c2cc(Cl)ccc21 (configuration not stated) | 212 to 214 °C |
| Oc1ccc(-c2nnnc(-c3cccc4ccccc34)c2-c2ccc(O)cc2O)c(O)c1 | > 280 °C |
| CCCCCCCCOc1cc(CBr)c(OCCCCCCCC)cc1CBr | 83 °C |
| CC(C)CC(C(=O)OCc1ccc([N+](=O)[O-])cc1)N(C(=O)OC(C)(C)C)C1CC1 (configuration not stated) | 139 to 143 °C |
| CCN1C(=O)C(C)(C)C(=O)N(C)c2cc(CN(CCn3ccc4oc(C)cc4c3=O)Cc3nc4ccccc4n3C)ccc21 | 127 to 133 °C |
| CCOC(=O)C(=C1SCSCS1)c1ccc(Oc2ccccc2)cc1 | 134 to 135 °C |
| CCCn1c(CCOC)nc2c(N)nc3cc(OCCCNC(=O)OC(C)(C)C)ccc3c21 | 134 to 135 °C |
| Cc1c(C)c(N2CCN(c3nc(-c4ccccc4)ns3)CC2)c(C)c2c1OC(C)(C)C2 | 204 to 205 °C |
| N#Cc1cnn2c1N(C(=O)CN1CCN(C(=O)Nc3ccccc3)CC1)CC=C2c1cccc(C(F)(F)F)c1 | 184 to 187 °C |
| CCOc1ccc(C2=NC[C@@H](OC(=O)Nc3ccccc3)[C@H](c3ccccc3)O2)cc1 (racemic) | 80 °C |
| COc1ccc2cc([C@H](C)C(=O)OCC[Si](C)(C)C)ccc2c1 | 81.5 to 82.5 °C |
| CCCCc1nc(C(C)O)c(C(=O)OCC)[nH]1 (configuration not stated) | 149 °C |
| CN1CCN(c2cc(N)c([N+](=O)[O-])cc2F)CC1 | 154 to 155 °C |
| CSC(SC)=C(C#N)C(=O)N(C)C | 45 to 46 °C |
| O=C(O)CCCCC1NC(=O)OC1=O (configuration not stated) | 102 to 104 °C |
| Cc1cc2c(cc1N1CC(C)C(C)C1)OC(=O)C2C (configuration not stated) | 104 to 105 °C |
| COc1ccc2[nH]cc(C)c2c1OCc1ccccc1 | 60 to 61 °C |
| O=C(CCC(=O)N[C@@H]1CCc2ccccc21)N[C@@H]1CCc2ccccc21 | 266 to 269 °C |

| SMILES | melting point |
| --- | --- |
| Nc1nc(Cl)c2ncn(OCC(O)CO)c2n1 (configuration not stated) | 155 to 158 °C |
| O=C1Nc2ccc(Cl)cc2C(OCC2CC2)(C(F)(F)F)CN1C1CC1 (configuration not stated) | 154 to 155 °C |
| CC(=O)c1cc(Br)no1 | 65 to 66 °C |
| NC(=O)c1ncn2c1[C@@H]1CCN1C(=O)c1cc(F)ccc1-2 | 223 to 224 °C |
| COC(=O)CCc1c(Cc2ccccc2C(F)(F)F)sc2c1c(=O)n(C)c(=O)n2CC(C)C | 86 to 88 °C |
| COc1ccc(-c2[nH]nc3c2C(=O)c2c(NC(=O)CN4CCC(CN)CC4)cccc2-3)cc1 | > 300 °C |
| COC(=O)c1ccc(OCc2ccc(Cl)cc2)cc1OCc1ccccc1 | 99 to 101 °C |
| N#Cc1nn(-c2c(Cl)cc(C(F)(F)F)cc2Cl)cc1C1CC1(Br)Br (configuration not stated) | 121 to 123 °C |
| CC1CC1C(=O)Nc1ccc(-n2nc(C(F)(F)F)cc2C(F)(F)F)cc1 (configuration not stated) | 172 to 173 °C |
| CC(C)(C)NCc1cc(Br)cc(Br)c1O | 173 to 175 °C |
| Cc1nc(Cl)cc(-c2ccc(F)cc2)n1 | 95 to 98 °C |
| O=C(NCCCCCNC(=O)c1ccc2c(c1)OCO2)c1ccc2c(c1)OCO2 | 158 to 160 °C |
| CCOCc1nc2c(N)nc3cccnc3c2n1CC(C)(C)NC(=O)C(C)C | 154 to 156 °C |
| COc1cc(C)nc2nc(S(=O)(=O)Nc3c(Cl)ccc(C)c3Cl)nn12 | 239 to 242 °C |
| C=CCc1cc(C(C)=O)c(O)cc1OCCCCC(=O)O | 110 to 111 °C |
| O=C1CCC(c2ccccc2)(c2ccccc2)C2CN(C(Cc3ccccc3)=NCc3cccc4ccccc34)CC12 (configuration not stated) | 192 °C |
| CSc1sc(C2NCCO2)c2c1C(=O)CC(C)(C)C2 (configuration not stated) | 190 to 193 °C |
| O=C(Nc1nc(=O)c2cnn3c2n1CC=C3c1cccc(C(F)(F)F)c1)c1ccccc1 | 235 to 239 °C |
| O=C(O)c1cn(C2COC2)c2cc(N3CCNCC3)c(F)c(O)c2c1=O | 266 to 273 °C |
| CC1(C)OC(c2ccc(S(N)(=O)=O)cc2)=C(c2cc3ccccc3o2)C1=O | 143 to 145 °C |
| CN(C)CCn1c(=O)[nH]c2cccnc21 | 141 to 142 °C |
| CCC(CC)(NC(=O)CCn1cnc(CC#N)c1)c1ccccc1 | 121 to 122 °C |
| OC1CCCCCC/C1=C\Br (configuration not stated) | 144 to 145 °C |
| CCc1nn(C)c2c1C(c1ccccc1)=NCC(C(=NO)C(=O)OC)=N2 | 225 to 227 °C |
| C=CCOn1c(=O)c2cc(F)c(N3CCCC3)cc2n(Cc2ccccc2)c1=O | 148 to 150 °C |
| COc1cc2c(cc1OC)CN(CCOc1ccc(NC(=O)c3cccc4c(=O)c5ccccc5[nH]c34)cc1)CC2 | 154 °C |

| SMILES | melting point |
| --- | --- |
| CCCc1ccc(S(=O)(=O)Nc2ccc3ncncc3c2)cc1 | 202 to 203 °C |
| Cc1ncc(-c2ccccc2)c(C(=O)N(C)Cc2cc(C(F)(F)F)cc(C(F)(F)F)c2)n1 | 149 to 152 °C |
| CCOc1ccccc1NC(N)=S | 174 °C |
| CSc1ccc(C(=O)NN=C2C(=O)Nc3ccc(I)cc32)cc1 | 298 °C |
| Nc1ccccc1-c1nc2ccccc2o1 | 104 to 107 °C |
| O=C(Nc1ccc(OC(F)(F)F)cc1)c1ccccc1NCc1ccc(=O)[nH]c1 | 189 °C |
| CC(=O)N(CCCCN1C(=O)c2ccccc2C1=O)c1ccccc1 | 83 to 84 °C |
| CC(C)C(C(N)=S)N(C)C(=O)OCc1ccccc1 (configuration not stated) | 130 °C |
| O=C(NC(O)C(Cl)(Cl)Cl)c1cc([N+](=O)[O-])ccc1O (configuration not stated) | 223 to 225 °C |
| Nc1ccc(-c2ccc(N)c([N+](=O)[O-])c2)cc1[N+](=O)[O-] | 275 °C |
| CC(Oc1ccc(-c2cccc(S(=O)(=O)NCC(F)(F)F)c2)cc1)C(O)CCc1cccnc1 (configuration not stated) | 47 to 48 °C |
| O=C(N[C@H]1CC[C@H](CCN2CCN(c3nccc4c3CCO4)CC2)CC1)c1ccccc1 | 208 °C |
| Cc1ccc(Sc2ccc(N)cc2)cc1 | 76 °C |
| CC(C)(C)c1cc(SC(=O)NN)cc(C(C)(C)C)c1O | 130 to 131 °C |
| COC(=O)N=C(N)OC | 36 to 39.5 °C |
| Cn1c(=O)c(S(C)(=O)=O)c(N2CCN(C(=O)c3cccs3)CC2)c2ccccc21 | 224 °C |
| CCC1(C)OC(c2ccc(S(C)(=O)=O)cc2)=C(c2ccc(C(C)(C)C)cc2)C1=O (configuration not stated) | 45 °C |
| CN(C)N1C(=O)C(=Cc2nc(C(C)(C)C)c(O)c(C(C)(C)C)n2)SC1=S | 100 to 105 °C |
| Oc1ccc2c(c1)CC(CCc1ccccc1)O2 (configuration not stated) | 56 to 58 °C |
| CC(=O)NNC(=O)c1ccc2occc2c1 | 145 to 146 °C |
| CCS(=O)(=O)c1ccc(-c2coc3ccc(-c4nnc(C)o4)cc23)c(Cl)c1 | 180 to 181 °C |
| CCc1ccc(Nc2nc3cc(NC(=O)c4cc(F)cc(C(F)(F)F)c4)ccc3o2)cc1 | > 250 °C |
| Cc1ccc(-c2cn(C)cc(-c3cccc(C)c3)c2=O)cc1 | 155 to 157 °C |
| Nc1ccc2ccc(Oc3ccccc3)nc2n1 | 196 °C |
